Source: US6410558B1, “Fungicides for the control of take-all disease of plants” (Monsanto Technology LLC, priority 1991, dated 2002)
Like-named read-outs stand apart in the source and are kept apart here.

Experiments:
Ggt = test: In vivo Assay: control of Ggt on wheat grown in pots of Ggt-infested soil, root disease rating; design: species or system Gaeumannomyces graminis var. tritici; conditions: for pest or weed control at 0.5 mg/pot: Gaeumannomyces graminis, 672 h, read-out: In vivo, percent disease control
Method: Compounds are tested for control of Ggt on ‘Bergen’ or ‘Anza’ varieties of wheat grown in 3-inch square pots containing soil infested with Ggt. The infestation is accomplished by mixing the soil with an inoculum prepared by growing Ggt on ¼ strength potato dextrose agar (4.875 g potato dextrose agar, 5.0 g Bacto agar, 500 mL distilled, deionized water) in plates and using plugs from the plates to infest sterile oats (400 cc whole oats, 350 mL deionized water, autoclaved). After a one-month incubation period at room temperature, the oats are dried and mixed with the soil at 4% v/v. Four wheat seeds are placed on top of the soil in each pot. The test compounds are prepared as an 1:9 acetone/water v/v solution containing 0.18% Tween® 20 to provide a treatment rate of 0.5 mg active ingredient per pot, treated with 3 mL test solution per pot. Five pots are used for each treatment level and the controls, which are untreated, inoculated and non-inoculated pots. After one hour drying time, the seeds are covered with more of the appropriate soil and a layer of vermiculite. The pots are placed in a growth chamber and watered each day. After four weeks, each pot is evaluated for evidence of disease by examination of the seminal roots of each plant under a dissecting microscope. A 0 to 5 rating scale having the following meanings is used:
0=no runner hyphae or lesions present
1=runner hyphae and a few small lesions present on <10% of root system
2=runner hyphae and small lesions present on 10-25% of root system
3=runner hyphae and lesions present on 25-50% of root system
4=runner hyphae and many, large, coalescing lesions on >50% of root system
5=root system and culm completely inundated with lesions and runner hyphae
From each set of five replicates a high and low score is eliminated and a replicate mean is calculated by the average of the remaining three scores. This mean score is then compared to the untreated control score and a percent disease control is calculated.

[1] = tested on: Gaeumannomyces graminis var. tritici (Ggt); test: In vitro Assay: mycelial growth of Ggt on minimal media agar plates containing test compound; assay type: cell-based; conditions: dark, 19-20° C., 4 to 5 days, diameter of mycelial growth; for inhibition at 0.1 ppm / inhibition at 1 ppm / inhibition at 10 ppm: Gaeumannomyces graminis; for inhibition at 0.1 ppm: read-out: In vitro (ppm) 0.1, Percent Inhibition; for inhibition at 1 ppm: read-out: In vitro (ppm) 1, Percent Inhibition; for inhibition at 10 ppm: read-out: In vitro (ppm) 10, Percent Inhibition
How it was run: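 Ggt mycelial diameter read after 4 to 5 days in darkness at 19-20° C, from three 4-mm plugs placed on Czapek Dox minimal agar containing test compound delivered in acetone. Inhibition expressed as percent versus untreated plates, plug size (4 mm) subtracted from both.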

[2] = 0.5 mg active ingredient per pot, 'Bergen' or 'Anza' wheat in Ggt-infested soil, after four weeks, vs untreated control

## CCNC(=O)c1cccc(F)c1[Si](C)(C)C [Example 12, N-Ethyl-3-fluoro-2-(trimethylsilyl)benzamide]
Ggt; [2]
  pest or weed control at 0.5 mg/pot: 95%
[1]; 0.1 ppm in minimal media agar
  inhibition at 0.1 ppm: 29%
[1]; 1 ppm in minimal media agar
  inhibition at 1 ppm: 83%
[1]; 10 ppm in minimal media agar
  inhibition at 10 ppm: 100%

## CCNC(=O)c1c([Si](C)(C)C)ccc(Cl)c1F [Example 218, 3-Chloro-N-ethyl-2-fluoro-6-(trimethylsilyl)benzamide]
Ggt; [2]
  pest or weed control at 0.5 mg/pot: 99%
[1]; 0.1 ppm in minimal media agar
  inhibition at 0.1 ppm: 18%
[1]; 1 ppm in minimal media agar
  inhibition at 1 ppm: 94%
[1]; 10 ppm in minimal media agar
  inhibition at 10 ppm: 100%

## CCN(CC)C(=O)c1c(C(F)F)ccc(F)c1[Si](C)(C)C [Example 52, N,N-Diethyl-6-(difluoromethyl)-3-fluoro-2-(trimethylsilyl)benzamide]
Ggt; [2]
  pest or weed control at 0.5 mg/pot: 96%
[1]; 0.1 ppm in minimal media agar
  inhibition at 0.1 ppm: 53%
[1]; 1 ppm in minimal media agar
  inhibition at 1 ppm: 81%
[1]; 10 ppm in minimal media agar
  inhibition at 10 ppm: 98%

## CSNC(=O)c1c(Cl)cccc1[Si](C)(C)C [Example 174, 2-Chloro-N-(methylthio)-6-(trimethylsilyl)benzamide]
Ggt; [2]
  pest or weed control at 0.5 mg/pot: 0%
[1]; 0.1 ppm in minimal media agar
  inhibition at 0.1 ppm: 12%
[1]; 1 ppm in minimal media agar
  inhibition at 1 ppm: 65%

## C=C[Si](C)(c1ccccc1)c1cccc(Cl)c1C(=O)NCC (centres unmarked) [Example 202, 2-Chloro-6-(ethenylmethylphenylsilyl)-N-ethylbenzamide]
Ggt; [2]
  pest or weed control at 0.5 mg/pot: 3%
[1]; 0.1 ppm in minimal media agar
  inhibition at 0.1 ppm: 33%
[1]; 1 ppm in minimal media agar
  inhibition at 1 ppm: 58%
[1]; 10 ppm in minimal media agar
  inhibition at 10 ppm: 88%

## CCN(CC)C(=S)c1cccc(F)c1[Si](C)(C)C [Example 74, N,N-Diethyl-3-fluoro-2-(trimethylsilyl)thiobenzamide]
Ggt; [2]
  pest or weed control at 0.5 mg/pot: 47%
[1]; 0.1 ppm in minimal media agar
  inhibition at 0.1 ppm: 7%
[1]; 1 ppm in minimal media agar
  inhibition at 1 ppm: 31%
[1]; 10 ppm in minimal media agar
  inhibition at 10 ppm: 93%

## CC(C)(C)OC(=O)Nc1c(Cl)cccc1[Si](C)(C)C [Example 111, [2-Chloro-6-(trimethylsilyl)phenyl]carbamic acid, 1,1-dimethylethyl ester]
Ggt; soil
  pest or weed control at 0.5 mg/pot: 48%
[1]; 0.1 ppm in minimal media agar
  inhibition at 0.1 ppm: 14%
[1]; 1 ppm in minimal media agar
  inhibition at 1 ppm: 66%
[1]; 10 ppm in minimal media agar
  inhibition at 10 ppm: 100%

## C[Si](C)(C)c1cccc(Cl)c1C(=O)N1CCCCC1 [Example 134, N-[2-Chloro-6-(trimethylsilyl)benzoyl]-piperidine]
Ggt; [2]
  pest or weed control at 0.5 mg/pot: < 0%
[1]; 0.1 ppm in minimal media agar
  inhibition at 0.1 ppm: < 0%
[1]; 1 ppm in minimal media agar
  inhibition at 1 ppm: 3%
[1]; 10 ppm in minimal media agar
  inhibition at 10 ppm: 39%

## C[Si](C)(C)c1cccc(Cl)c1C(=O)NCCO [Example 27, 2-Chloro-N-(2-hydroxyethyl)-6-(trimethylsilyl)benzamide]
Ggt; [2]
  pest or weed control at 0.5 mg/pot: 33%
[1]; 0.1 ppm in minimal media agar
  inhibition at 0.1 ppm: 15%
[1]; 1 ppm in minimal media agar
  inhibition at 1 ppm: 13%
[1]; 10 ppm in minimal media agar
  inhibition at 10 ppm: 64%

## 2-N,N-dipropyl-6-(trimethylsilyl)benzamide [Example 14]
Ggt; [2]
  In vivo, percent disease control: 92%
[1]; 0.1 ppm in minimal media agar
  In vitro (ppm) 0.1, Percent Inhibition: 7%
[1]; 1 ppm in minimal media agar
  In vitro (ppm) 1, Percent Inhibition: 40%
[1]; 10 ppm in minimal media agar
  In vitro (ppm) 10, Percent Inhibition: 79%

## CCNC(=O)c1c(Cl)cccc1[Si](C)(C)CBr [Example 210, 2-[(Bromomethyl)dimethylsilyl]-6-chloro-N-ethyl-benzamide]
Ggt; [2]
  pest or weed control at 0.5 mg/pot: 74%
[1]; 0.1 ppm in minimal media agar
  inhibition at 0.1 ppm: 85%
[1]; 1 ppm in minimal media agar
  inhibition at 1 ppm: 88%
[1]; 10 ppm in minimal media agar
  inhibition at 10 ppm: 94%

## CCN(CC)C(=O)c1c(C(F)(F)F)ccc(C(F)(F)F)c1[Si](C)(C)C [Example 62, N,N-Diethyl-2-(trimethylsilyl)-3,6-bis(trifluoromethyl)benzamide]
Ggt; [2]
  pest or weed control at 0.5 mg/pot: 9%
[1]; 0.1 ppm in minimal media agar
  inhibition at 0.1 ppm: 8%
[1]; 1 ppm in minimal media agar
  inhibition at 1 ppm: 3%
[1]; 10 ppm in minimal media agar
  inhibition at 10 ppm: 69%

## CCNC(=O)c1sc(Br)cc1[Si](C)(C)C [Example 266, 5-Bromo-N-ethyl-3-(trimethylsilyl)-2-thiophenecarboxamide]
Ggt; [2]
  pest or weed control at 0.5 mg/pot: 4%
[1]; 0.1 ppm in minimal media agar
  inhibition at 0.1 ppm: 21%
[1]; 1 ppm in minimal media agar
  inhibition at 1 ppm: 61%
[1]; 10 ppm in minimal media agar
  inhibition at 10 ppm: 100%

## C=CCNC(=O)c1c(Cl)cccc1[Si](C)(C)C [Example 106, 2-Chloro-N-2-propenyl-6-(trimethylsilyl)benzamide]
Ggt; [2]
  pest or weed control at 0.5 mg/pot: 100%
[1]; 0.1 ppm in minimal media agar
  inhibition at 0.1 ppm: 95%
[1]; 1 ppm in minimal media agar
  inhibition at 1 ppm: 95%
[1]; 10 ppm in minimal media agar
  inhibition at 10 ppm: 97%

## CCN(CC)C(=O)c1ccccc1[Si](C)(C)C [Example 2, N,N-Diethyl-2-(trimethylsilyl)benzamide]
Ggt; [2]
  pest or weed control at 0.5 mg/pot: 74%
[1]; 0.1 ppm in minimal media agar
  inhibition at 0.1 ppm: 14%
[1]; 1 ppm in minimal media agar
  inhibition at 1 ppm: 36%
[1]; 10 ppm in minimal media agar
  inhibition at 10 ppm: 72%

## CN(Cc1ccc(C(F)(F)F)cc1)C(=O)c1c(Cl)cccc1[Si](C)(C)C [Example 103, 2-Chloro-N-methyl-N-[[4-(trifluoromethyl)phenyl]-methyl]-6-(trimethylsilyl)-benzamide]
Ggt; [2]
  pest or weed control at 0.5 mg/pot: 26%
[1]; 0.1 ppm in minimal media agar
  inhibition at 0.1 ppm: < 0%
[1]; 1 ppm in minimal media agar
  inhibition at 1 ppm: 55%
[1]; 10 ppm in minimal media agar
  inhibition at 10 ppm: 92%

## CCCCNC(=O)c1c(Cl)cccc1[Si](C)(C)C [Example 20, N-Butyl-2-chloro-6-(trimethylsilyl)-benzamide]
Ggt; [2]
  pest or weed control at 0.5 mg/pot: 36%
[1]; 0.1 ppm in minimal media agar
  inhibition at 0.1 ppm: 7%
[1]; 1 ppm in minimal media agar
  inhibition at 1 ppm: 14%
[1]; 10 ppm in minimal media agar
  inhibition at 10 ppm: 61%

## CCN(CC)C(=O)c1c(Cl)cccc1[Si](C)(C)c1ccccc1 [Example 67, N,N-Diethyl-2-chloro-6-(dimethylphenylsilyl)benzamide]
Ggt; [2]
  pest or weed control at 0.5 mg/pot: < 0%
[1]; 0.1 ppm in minimal media agar
  inhibition at 0.1 ppm: < 0%
[1]; 1 ppm in minimal media agar
  inhibition at 1 ppm: 19%
[1]; 10 ppm in minimal media agar
  inhibition at 10 ppm: 100%

## CCN(CC)C(=O)c1c(CF)cccc1[Si](C)(C)C [Example 98, N,N-Diethyl-2-(fluoromethyl)-6-(trimethylsilyl)benzamide]
Ggt; [2]
  pest or weed control at 0.5 mg/pot: 97%
[1]; 0.1 ppm in minimal media agar
  inhibition at 0.1 ppm: 22%
[1]; 1 ppm in minimal media agar
  inhibition at 1 ppm: 81%
[1]; 10 ppm in minimal media agar
  inhibition at 10 ppm: 100%

## CC[C@@H](C)NC(=O)c1c(Cl)cccc1[Si](C)(C)C [Example 151, 2-Chloro-N-(1-methylpropyl)-6-(trimethylsilyl)benzamide, (r)-]
Ggt; [2]
  pest or weed control at 0.5 mg/pot: 97%
[1]; 0.1 ppm in minimal media agar
  inhibition at 0.1 ppm: < 0%
[1]; 1 ppm in minimal media agar
  inhibition at 1 ppm: 71%
[1]; 10 ppm in minimal media agar
  inhibition at 10 ppm: 57%

## C[Si](C)(C)c1cccc(Cl)c1C(=O)NCC1CC1 [Example 150, 2-Chloro-N-(cyclopropylmethyl)-6-(trimethylsilyl)benzamide]
Ggt; [2]
  pest or weed control at 0.5 mg/pot: 96%
[1]; 0.1 ppm in minimal media agar
  inhibition at 0.1 ppm: 34%
[1]; 1 ppm in minimal media agar
  inhibition at 1 ppm: 74%
[1]; 10 ppm in minimal media agar
  inhibition at 10 ppm: 83%

## C[Si](C)(C)c1cccc(I)c1C(=O)NC1CC1 [Example 209, N-Cyclopropyl-2-iodo-6-(trimethylsilyl)benzamide]
[1]; 0.1 ppm in minimal media agar
  inhibition at 0.1 ppm: 28%
[1]; 1 ppm in minimal media agar
  inhibition at 1 ppm: 90%
[1]; 10 ppm in minimal media agar
  inhibition at 10 ppm: 100%

## CCNC(=O)c1cc(Br)sc1[Si](C)(C)C [Example 268, 5-Bromo-N-ethyl-2-(trimethylsilyl)-3-thiophenecarboxamide]
[1]; 0.1 ppm in minimal media agar
  inhibition at 0.1 ppm: < 0%
[1]; 1 ppm in minimal media agar
  inhibition at 1 ppm: < 0%
[1]; 10 ppm in minimal media agar
  inhibition at 10 ppm: 100%

## CCNC(=O)c1c([Si](C)(C)C)ccc(Cl)c1Cl [Example 203, 2,3-Dichloro-N-ethyl-6-(trimethylsilyl)benzamide]
[1]; 0.1 ppm in minimal media agar
  inhibition at 0.1 ppm: 79%
[1]; 1 ppm in minimal media agar
  inhibition at 1 ppm: 84%
[1]; 10 ppm in minimal media agar
  inhibition at 10 ppm: 91%

## C#CCNC(=O)c1c(Cl)cccc1[Si](C)(C)C [Example 108, 2-Chloro-N-(2-propynyl)-6-(trimethylsilyl)benzamide]
[1]; 0.1 ppm in minimal media agar
  inhibition at 0.1 ppm: 90%
[1]; 1 ppm in minimal media agar
  inhibition at 1 ppm: 86%
[1]; 10 ppm in minimal media agar
  inhibition at 10 ppm: 97%

## CCNC(=O)c1c([Si](C)(C)C)ccc(C(C)=O)c1Cl [Example 243, 3-Acetyl-2-chloro-N-ethyl-6-(trimethylsilyl)benzamide]
[1]; 0.1 ppm in minimal media agar
  inhibition at 0.1 ppm: 23%
[1]; 1 ppm in minimal media agar
  inhibition at 1 ppm: 10%
[1]; 10 ppm in minimal media agar
  inhibition at 10 ppm: 83%

## CCN(Cc1ccco1)C(=O)c1c(Cl)cccc1[Si](C)(C)C [Example 125, 2-Chloro-N-ethyl-N-(2-furylmethyl)-6-(trimethylsilyl)benzamide]
[1]; 0.1 ppm in minimal media agar
  inhibition at 0.1 ppm: < 0%
[1]; 1 ppm in minimal media agar
  inhibition at 1 ppm: < 0%
[1]; 10 ppm in minimal media agar
  inhibition at 10 ppm: 89%

## C/C=C/NC(=O)c1c(Cl)cccc1[Si](C)(C)C [Example 113, (E)-2-Chloro-N-1-propenyl-6-(trimethylsilyl)benzamide]
[1]; 0.1 ppm in minimal media agar
  inhibition at 0.1 ppm: < 0%
[1]; 1 ppm in minimal media agar
  inhibition at 1 ppm: 26%
[1]; 10 ppm in minimal media agar
  inhibition at 10 ppm: 96%

## CCNC(=O)c1cc(N(C)C)ccc1[Si](C)(C)C [Example 226, 5-(Dimethylamino)-N-ethyl-2-(trimethylsilyl)benzamide]
[1]; 0.1 ppm in minimal media agar
  inhibition at 0.1 ppm: 32%
[1]; 1 ppm in minimal media agar
  inhibition at 1 ppm: 91%
[1]; 10 ppm in minimal media agar
  inhibition at 10 ppm: 100%
